Source: ChEMBL document CHEMBL1201862, “PubChem BioAssay data set” (2004)
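Each compound was tested at five concentrations against cells in 96-well plates for 48 hours. Here, GI50 denotes the concentration required for 50% inhibition of growth.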 Activity calls are given as the source filed them. No stated cut-off is given here; in the data, active = GI50 up to about 1.1 µM and inactive = higher.

Legend:
Test in all cases: NCI-60 cell line screen, 48 h
DLD-1 = tested on: DLD-1
LXFL 529 = tested on: LXFL 529
SNB-78 = tested on: SNB-78
DMS-114 = tested on: DMS-114
HOP-18 = tested on: HOP-18
RXF 631 = tested on: RXF 631
DMS-273 = tested on: DMS-273
XF498 = tested on: XF498
BT-549 = tested on: BT-549

Measured: GI50

CC(=O)C1C(=O)C(=O)N(c2ccccc2N2C(=O)C(=O)C(C(C)=O)C2=O)C1=O (stereo not given)
inactive: DLD-1 > 100 µM | LXFL 529 > 100 µM | SNB-78 > 100 µM | DMS-114 > 100 µM | HOP-18 > 100 µM | RXF 631 > 100 µM

C[C@]12CCC[C@H](Cl)C1(O)C[C@H](C(=O)O)CC2 (stereo not given in full)
inactive: DLD-1 > 100 µM | LXFL 529 > 100 µM | SNB-78 > 100 µM | DMS-114 > 100 µM | HOP-18 > 100 µM | DMS-273 > 100 µM | XF498 > 100 µM

Cc1cccc(C)c1NC(=O)C(=O)CC(=O)CO
inactive: DLD-1 > 100 µM | LXFL 529 > 100 µM | SNB-78 > 100 µM | DMS-114 > 100 µM | HOP-18 > 100 µM | DMS-273 > 100 µM | RXF 631 > 100 µM

Cc1cc2c(cc1CO)N1Cc3cc(C)c(CO)cc3N(C2)C1
inactive: DLD-1 > 100 µM | LXFL 529 > 100 µM | SNB-78 > 100 µM | DMS-114 > 100 µM | HOP-18 > 100 µM | DMS-273 > 100 µM | XF498 > 100 µM

COc1nc(NC2OCC(O)C(O)C2O)c(NC2OCC(O)C(O)C2O)c(=O)n1C (stereo not given)
inactive: DLD-1 > 100 µM | LXFL 529 > 100 µM | SNB-78 > 100 µM | DMS-114 > 100 µM | HOP-18 > 100 µM | DMS-273 > 100 µM | XF498 > 100 µM

NC(CCC(=O)Nc1ccc(O)cc1)C(=O)O (stereo not given)
inactive: DLD-1 > 100 µM | LXFL 529 > 100 µM | SNB-78 > 100 µM | DMS-114 > 100 µM | HOP-18 > 100 µM | DMS-273 > 100 µM | XF498 > 100 µM

c1cnc2c(c1)-n1cccc1C1(CCSC1)NN2 (stereo not given)
inactive: DLD-1 > 100 µM | SNB-78 > 100 µM | DMS-114 > 100 µM | HOP-18 28.4 µM | DMS-273 > 100 µM | XF498 > 100 µM

CCOC(=O)C1(Br)C(c2ccccc2)NC(=O)N(C2OC(COC(=O)c3ccccc3)C(OC(=O)c3ccccc3)C2OC(=O)c2ccccc2)C1(C)Br (stereo not given)
inactive: DLD-1 36.4 µM | LXFL 529 21.6 µM | DMS-114 18.3 µM | HOP-18 > 100 µM | DMS-273 33.5 µM | RXF 631 15.3 µM

O=C(O)CN(CC(=O)O)Cc1cc(C#Cc2ccc(C#Cc3ccccc3)cc2)cc(CN(CC(=O)O)CC(=O)O)n1
inactive: DLD-1 8.53 µM | LXFL 529 27.2 µM | SNB-78 44.3 µM | BT-549 12.3 µM | DMS-114 13.8 µM | HOP-18 33.4 µM | DMS-273 7.66 µM | XF498 20.5 µM

COc1cc2c(cc1OC)C(CC1=C(c3ccccc3)CN3CCc4cc(OC)c(OC)cc4C3C1)NCC2 (stereo not given)
inactive: DLD-1 19.1 µM | LXFL 529 16.6 µM | SNB-78 15.6 µM | DMS-114 14.3 µM | HOP-18 14.6 µM | DMS-273 15.7 µM | XF498 11.7 µM | RXF 631 14.8 µM

COc1cc(C)c(C)c(OC(=O)c2c(C)c(C)c(OC)c(C)c2OC)c1C
inactive: DLD-1 7.31 µM | LXFL 529 8.87 µM | SNB-78 21.1 µM | DMS-114 3.29 µM | HOP-18 10.4 µM | DMS-273 3.94 µM | XF498 12.2 µM | RXF 631 10.3 µM

Cc1c(Cl)ccc2c1NC(=O)C2(O)CC(=O)c1ccc(Cl)cc1 (stereo not given)
inactive: DLD-1 42.9 µM | LXFL 529 > 38.9 µM | SNB-78 > 96.6 µM | DMS-114 11.7 µM | HOP-18 > 70.8 µM | DMS-273 48.2 µM | RXF 631 71.1 µM

NC1CC(n2ccc(=O)[nH]c2=O)OC1C(O)CO (stereo not given)
inactive: DLD-1 > 100 µM | LXFL 529 > 100 µM | DMS-114 > 100 µM | HOP-18 > 100 µM | DMS-273 > 100 µM | XF498 > 100 µM | RXF 631 > 100 µM

CC(=O)Nc1ccc(/C=C/C(=O)c2sc(-n3nc(-c4ccccc4)cc3-c3ccccc3)nc2C)cc1
inactive: DLD-1 > 10 µM | LXFL 529 > 10 µM | SNB-78 > 10 µM | DMS-114 74.8 µM | HOP-18 > 10 µM | DMS-273 > 10 µM | RXF 631 > 10 µM

Nc1ccc(N)c2c1C(=O)c1c(N)ccc(N)c1C2=O
inactive: DLD-1 78.7 µM | SNB-78 78.5 µM | DMS-114 30.6 µM | HOP-18 16.3 µM | DMS-273 39 µM | XF498 > 54.5 µM

COC(=O)C(=O)C1CCCCC(C2=NC3NN=C(N)N3C2=O)C1=O (stereo not given)
inactive: DLD-1 > 100 µM | LXFL 529 > 100 µM | DMS-114 > 100 µM | HOP-18 > 100 µM | DMS-273 > 100 µM | XF498 > 100 µM | RXF 631 > 100 µM

O=C1c2cnccc2Cc2cccc3c2N1c1ccccc1S3
inactive: DLD-1 29.2 µM | LXFL 529 27.5 µM | DMS-114 26.4 µM | DMS-273 22.9 µM | XF498 15.1 µM | RXF 631 26.1 µM

N#CC12CCC(O)C(CC1)C2=O (stereo not given)
inactive: DLD-1 47.3 µM | LXFL 529 > 10 µM | SNB-78 > 100 µM | DMS-114 19.4 µM | HOP-18 > 100 µM | DMS-273 96.8 µM | XF498 > 100 µM | RXF 631 > 100 µM
